Assay results: the NIST ThermoML archive (doi:10.1021/je025620p)

Assay: isobaric coefficient of expansion
Settings: 303.15 K, Liquid

Cc1ccccc1 [toluene]
Settings | isobaric coefficient of expansion
500 kPa | 0.00104 1/K
1000 kPa | 0.00104 1/K
2000 kPa | 0.00103 1/K
3000 kPa | 0.00103 1/K
4000 kPa | 0.00102 1/K
5000 kPa | 0.00101 1/K
6000 kPa | 0.00101 1/K
7000 kPa | 0.001 1/K
8000 kPa | 0.000996 1/K
9000 kPa | 0.00099 1/K
10000 kPa | 0.000984 1/K
11000 kPa | 0.000977 1/K
12000 kPa | 0.000973 1/K
13000 kPa | 0.000967 1/K
14000 kPa | 0.000962 1/K
15000 kPa | 0.000957 1/K
16000 kPa | 0.000952 1/K
17000 kPa | 0.000947 1/K
18000 kPa | 0.000942 1/K
19000 kPa | 0.000937 1/K
20000 kPa | 0.000932 1/K
21000 kPa | 0.000928 1/K
22000 kPa | 0.000923 1/K
23000 kPa | 0.000918 1/K
24000 kPa | 0.000914 1/K
25000 kPa | 0.000908 1/K
26000 kPa | 0.000904 1/K
27000 kPa | 0.000903 1/K
28000 kPa | 0.000896 1/K
29000 kPa | 0.000896 1/K
30000 kPa | 0.000892 1/K

CCCCCCC [heptane]
Settings | isobaric coefficient of expansion
500 kPa | 0.00125 1/K
1000 kPa | 0.00124 1/K
2000 kPa | 0.00123 1/K
3000 kPa | 0.00122 1/K
4000 kPa | 0.00121 1/K
5000 kPa | 0.00119 1/K
6000 kPa | 0.00118 1/K
7000 kPa | 0.00117 1/K
8000 kPa | 0.00116 1/K
9000 kPa | 0.00115 1/K
10000 kPa | 0.00114 1/K
11000 kPa | 0.00113 1/K
12000 kPa | 0.00112 1/K
13000 kPa | 0.00111 1/K
14000 kPa | 0.0011 1/K
15000 kPa | 0.00109 1/K
16000 kPa | 0.00108 1/K
17000 kPa | 0.00108 1/K
18000 kPa | 0.00107 1/K
19000 kPa | 0.00106 1/K
20000 kPa | 0.00105 1/K
21000 kPa | 0.00104 1/K
22000 kPa | 0.00104 1/K
23000 kPa | 0.00103 1/K
24000 kPa | 0.00102 1/K
25000 kPa | 0.00101 1/K
26000 kPa | 0.00101 1/K
27000 kPa | 0.001 1/K
28000 kPa | 0.000995 1/K
29000 kPa | 0.000988 1/K
30000 kPa | 0.000983 1/K

C1CCCCC1 [cyclohexane]
Settings | isobaric coefficient of expansion
500 kPa | 0.00118 1/K
1000 kPa | 0.00117 1/K
2000 kPa | 0.00116 1/K
3000 kPa | 0.00115 1/K
4000 kPa | 0.00114 1/K
5000 kPa | 0.00113 1/K
6000 kPa | 0.00113 1/K
7000 kPa | 0.00112 1/K
8000 kPa | 0.00111 1/K
9000 kPa | 0.0011 1/K
10000 kPa | 0.00109 1/K
11000 kPa | 0.00109 1/K
12000 kPa | 0.00108 1/K
13000 kPa | 0.00107 1/K
14000 kPa | 0.00106 1/K
15000 kPa | 0.00106 1/K
16000 kPa | 0.00105 1/K
17000 kPa | 0.00104 1/K
18000 kPa | 0.00104 1/K
19000 kPa | 0.00103 1/K
20000 kPa | 0.00103 1/K
21000 kPa | 0.00102 1/K
22000 kPa | 0.00101 1/K
23000 kPa | 0.00101 1/K
24000 kPa | 0.001 1/K
25000 kPa | 0.000994 1/K
26000 kPa | 0.000988 1/K
27000 kPa | 0.000985 1/K
28000 kPa | 0.000977 1/K
29000 kPa | 0.000975 1/K
30000 kPa | 0.00097 1/K

CCCCCC [hexane]
Settings | isobaric coefficient of expansion
500 kPa | 0.00135 1/K
1000 kPa | 0.00135 1/K
2000 kPa | 0.00133 1/K
2700 kPa | 0.00132 1/K
4000 kPa | 0.0013 1/K
4900 kPa | 0.00129 1/K
6000 kPa | 0.00126 1/K
7000 kPa | 0.00125 1/K
8000 kPa | 0.00124 1/K
9000 kPa | 0.00122 1/K
10000 kPa | 0.00121 1/K
11000 kPa | 0.0012 1/K
12000 kPa | 0.00119 1/K
13000 kPa | 0.00118 1/K
14100 kPa | 0.00116 1/K
14500 kPa | 0.00116 1/K
16000 kPa | 0.00115 1/K
17000 kPa | 0.00114 1/K
18000 kPa | 0.00113 1/K
19000 kPa | 0.00112 1/K
20000 kPa | 0.00111 1/K
21000 kPa | 0.0011 1/K
22000 kPa | 0.00109 1/K
23000 kPa | 0.00108 1/K
24500 kPa | 0.00107 1/K
25000 kPa | 0.00107 1/K
26000 kPa | 0.00106 1/K
27000 kPa | 0.00105 1/K
28000 kPa | 0.00104 1/K
29000 kPa | 0.00104 1/K
30000 kPa | 0.00103 1/K
